Measurements from patent US8211470B2, “Method for preparing nano-scale or amorphous particle using solid fat as a solvent” (Bio-Synectics Inc., priority 2003, dated 2012).

Assay: Particle size of the final powder dispersed in distilled water, particle size analyzer (Mastersizer Microplus)
Assay type: physicochemical
Procedure: Next, the pressure inside the collecting reactor containing the sprayed solid powders was elevated to about 150 atm by adding carbon dioxide gas into the collecting reactor. The pressure inside the collecting reactor was constantly maintained to the pressure of 100 atm or more by controlling a vent valve of the collecting reactor, while continuously adding the carbon dioxide gas. Under the constantly maintained pressure, the cetyl alcohol used as a solid fat was extracted for 8 hours with the gas of the supercritical fluid to obtain 1.8 g of fat-removed fine solid particles. The particle size of the obtained powdered mixture was determined by a particle size analyzer (Mastersizer Microplus) by dispersing the obtained powdered mixture into distilled water, and the result was shown in Table 1.
30 g of cetyl alcohol and 2 g of ketoconazole were placed into a 250 ml volume beaker and heated to 80° C. with stirring until the mixture became completely melt to form a transparent liquid. After completely melting the mixture, additional stirring for about 10 minutes was further carried out for homogeneous mixing. Then, the melted mixture was poured into a stainless steel plate which was precooled to 10° C. or less for rapid cooling and solidifying, thereby obtaining the solid product in which the active ingredient was dispersed uniformly into the fat in the form of fine particles. […]

Structure (SMILES): CC(=O)N1CCN(c2ccc(OCC3COC(Cn4ccnc4)(c4ccc(Cl)cc4Cl)O3)cc2)CC1 (stereo not shown) [Raw material (Active ingredient), ketoconazole]
- Average particle size: 10.41 μm
